Test results taken from PubChem BioAssay (NCI).
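Cultured in 96-well plates, cells were exposed to test compound for 48 hours across five concentrations. At the GI50, growth is halved. TGI: concentration producing complete growth inhibition.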

Assays:
Experiment in all cases: NCI anticancer screen, dose series, 48 h
MOLT-4 leukemia = test system: MOLT-4 leukemia
M14 melanoma = test system: M14 melanoma
HOP-62 NSCLC = test system: HOP-62 NSCLC
DU-145 prostate = test system: DU-145 prostate
OVCAR-8 ovarian = test system: OVCAR-8 ovarian
ACHN renal = test system: ACHN renal
CAKI-1 renal = test system: CAKI-1 renal
OVCAR-4 ovarian = test system: OVCAR-4 ovarian
TK-10 renal = test system: TK-10 renal
MALME-3M melanoma = test system: MALME-3M melanoma
A498 renal = test system: A498 renal
SNB-19 CNS = test system: SNB-19 CNS
T-47D breast = test system: T-47D breast
786-0 renal = test system: 786-0 renal
KM12 colon = test system: KM12 colon
SK-MEL-2 melanoma = test system: SK-MEL-2 melanoma
HT29 colon = test system: HT29 colon
BT-549 breast = test system: BT-549 breast
EKVX NSCLC = test system: EKVX NSCLC
NCI-H23 lung = test system: NCI-H23 lung
SW-620 colon = test system: SW-620 colon
SF-268 CNS = test system: SF-268 CNS
CCRF-CEM leukemia = test system: CCRF-CEM leukemia
MDA-MB-231 breast = test system: MDA-MB-231 breast
IGROV1 ovarian = test system: IGROV1 ovarian
PC-3 prostate = test system: PC-3 prostate
HCT-116 colon = test system: HCT-116 colon
SF-295 CNS = test system: SF-295 CNS
SR leukemia = test system: SR leukemia

CC(C)(C)Nc1nc2c(OCCc3ccccc3)cccn2c1-c1cccc(F)c1
GI50 (MOLT-4 leukemia): 3.22 µM
TGI (MOLT-4 leukemia): > 100 µM
GI50 (M14 melanoma): 6.79 µM
TGI (M14 melanoma): 32.1 µM
GI50 (HOP-62 NSCLC): 11.8 µM
TGI (HOP-62 NSCLC): 42 µM
GI50 (DU-145 prostate): 9.13 µM
TGI (DU-145 prostate): > 100 µM
GI50 (OVCAR-8 ovarian): 9.39 µM
TGI (OVCAR-8 ovarian): > 100 µM
GI50 (ACHN renal): 4.63 µM
TGI (ACHN renal): > 100 µM
GI50 (CAKI-1 renal): 5.22 µM
TGI (CAKI-1 renal): > 100 µM
GI50 (OVCAR-4 ovarian): 4.52 µM
TGI (OVCAR-4 ovarian): > 100 µM
GI50 (TK-10 renal): 14.2 µM
TGI (TK-10 renal): > 100 µM
GI50 (MALME-3M melanoma): 3.6 µM
TGI (MALME-3M melanoma): 22.8 µM
GI50 (A498 renal): 15.8 µM
TGI (A498 renal): 65.1 µM
GI50 (SNB-19 CNS): 5.81 µM
TGI (SNB-19 CNS): > 100 µM
GI50 (T-47D breast): 3.55 µM
TGI (T-47D breast): > 100 µM
GI50 (786-0 renal): 13.5 µM
TGI (786-0 renal): 52.8 µM
GI50 (KM12 colon): 4.13 µM
TGI (KM12 colon): > 100 µM
GI50 (SK-MEL-2 melanoma): 3.11 µM
TGI (SK-MEL-2 melanoma): 12.4 µM
GI50 (HT29 colon): 5.02 µM
TGI (HT29 colon): 24 µM
GI50 (BT-549 breast): 10.3 µM
TGI (BT-549 breast): 36.3 µM
GI50 (EKVX NSCLC): 3.44 µM
TGI (EKVX NSCLC): > 100 µM
GI50 (NCI-H23 lung): 4.13 µM
TGI (NCI-H23 lung): 34.8 µM
GI50 (SW-620 colon): 11.3 µM
TGI (SW-620 colon): 87.1 µM
GI50 (SF-268 CNS): 7.84 µM
TGI (SF-268 CNS): > 100 µM
GI50 (CCRF-CEM leukemia): 6.53 µM
TGI (CCRF-CEM leukemia): > 100 µM
GI50 (MDA-MB-231 breast): 10.2 µM
TGI (MDA-MB-231 breast): 26.2 µM
GI50 (IGROV1 ovarian): 8.99 µM
TGI (IGROV1 ovarian): > 100 µM
GI50 (PC-3 prostate): 4.91 µM
TGI (PC-3 prostate): > 100 µM
GI50 (HCT-116 colon): 4.12 µM
TGI (HCT-116 colon): 36 µM
GI50 (SF-295 CNS): 4.41 µM
TGI (SF-295 CNS): 22 µM
GI50 (SR leukemia): 4.48 µM
TGI (SR leukemia): > 100 µM
